Results from US20250152731A1, “ANTI-TROP2 ANTIBODY COMBINATION THERAPIES AND METHODS OF USE THEREOF” (priority 2021, published 2025).

Columns and labels:
[1] = test system: BCX-010CL, HCC-1954, HCC-1143, and MDA-MB-157 cells; assay: Cell survival assay of Sacituzumab govitecan with or without decitabine; type: cell-based, human; details: HCC-1954, HCC-1143, MDA-MB-157, decitabine co-treatment, 3 days, FIG. 10C
Experimental: BCX-010CL, HCC-1954, HCC-1143, and MDA-MB-157 cells were treated with Sacituzumab govitecan at serial dilutions, with or without decitabine co-treatment for 3 days. IC50s of individual agents and combination index were calculated.
Finally, BCX-010CL, HCC-1954, HCC-1143, and MDA-MB-157 cells were treated with Sacituzumab govitecan at serial dilutions, with or without decitabine co-treatment for 3 days. IC50s of individual agents and combination index were calculated.

[2] = test system: BCX-010, BCX-011 and Sum-159 cells; assay: Annexin V flow cytometry apoptosis assay; type: cell-based, human; details: decitabine 1 μM and/or sacituzumab govitecan 0.1 μM, three days; FIGS. 5A-5D
Experimental: In order to determine the effect of decitabine and/or Zeb1 knockdown treatment on sacituzumab govitecan activity, apoptosis was measured in breast cancer cell lines. BCX-010 cells (FIG. 5A and FIG. 5B), BCX-011 cells (FIG. 5C) and Sum-159 cells (FIG. 5D) were seeded in 6-cm plates, then treated with decitabine (1 μM) and/or sacituzumab govitecan (0.1 μM) for three days in an apoptosis assay. After the three day treatment, cells were stained with Annexin V. Flow cytometry was performed to sort Annexin V positive cells (apoptotic cells) (FIGS. 5A-5D). Percentage of apoptotic cells was calculated by Annexin V positive cells over total cell populations.
Cells were seeded in 6 cm plates at a density of 3×10^5 cells per well in triplicates for each treatment group. The following day, cells were treated with decitabine and SG at 1 μM and 0.1 μM respectively, or their combination. […] Using Annexin-V-FLUOS Staining Kit (Roche), cells were stained with Annexin V fluorescence and propidium iodide (PI), following manufacturer's protocol. Samples were analyzed by flow cytometry. Percentage of Annexin V positive apoptotic cells were calculated.
In apoptosis assay, cells were treated with decitabine at 1 μM, SG at 0.1 μM, or their combination for 3 days. Annexin V positive apoptotic cells were measured by flow cytometry. Percentage of apoptotic cells over total cell populations was calculated (FIG. 7D).

TROP2 [3] = assay: Immunoblotting of TROP2 protein in breast cancer cell lines; type: cell-based, human
Experimental: (§1) Following treatments, cells were washed with cold PBS and lysed in 1× Laemmli buffer. The protein concentrations in the cell lysates were measured using Pierce BCA protein assay Kit (ThermoFisher). The same amount protein for each sample (20-50 μg/lane) was loaded to SDS-PAGE gel, followed by transferring proteins to a 0.2 μm nitrocellulose membrane (Bio-Rad Laboratories). Membranes were blocked with blocking buffer Blocker Casein in PBS (ThermoFisher) at room temperature for 1 hour, followed by immunoblotting with the primary antibodies in 5% BSA TBST buffer at room temperature overnight. After washing with TBST buffer, the immunoblotting membrane was then probed with the secondary antibodies with fluorescence conjugation. The immunoblots were visualized and the immunoblotting signal intensity quantitated using the Odyssey IR imaging system (Li-Cor Biosciences).
Five cell lines (BCX-011, BCX-010, Sum-159, BCX-010 transfected with control shRNA, and BCX-010 transfected with Zeb1 shRNA) were treated with decitabine (a DNA methyltransferase inhibitor) at 1 μM for 3 days (FIG. 1B). To knockdown Zeb1, BCX-010 cells were transduced with a lentivirus containing Zeb1 shRNA, followed by puromycin selection.
(§2) Breast cancer cell lines BCX-010CL, BCX-011CL, and SUM159 cells were treated with decitabine, azacytidine, panobinostat, vorinostat, tazemetostat at […] respectively for 3 days, followed by immunoblotting for E-cad and TROP2 with β-actin as control (FIG. 1D).
(§3) The treated cells were lysed. The cell lysate samples were loaded onto SDS-PAGE gel for the western blot. Antibodies ab-214488 and cst-3195 were used to detect TROP2 and E-cadherin respectively. β-actin was used as loading control (FIG. 1C).

Sum-159 cells = assay: Colony formation assay, Sum-159; type: cell-based, human; details: sacituzumab govitecan 200 nM, decitabine 200 nM
Experimental: FIGS. 6A-6E show a colony assay of BCX-010 (FIGS. 6A-6B), BCX-011 (FIG. 6C-6D), and Sum-159 cells ([…]) after treatment with vehicle, sacituzumab govitecan (200 nM), and/or decitabine (200 nM) for 10 days. FIGS. 6A-6C show agar plates after 10 days of colony formation.
In order to determine the effect of decitabine treatment on sacituzumab govitecan activity, colony formation assays were performed in BCX-010 cells (FIGS. 6A-6B), BCX-011 cells (FIG. 6C-6D), and Sum-159 breast cancer cells (FIG. 6E-6F).
Cells were seeded in 6-well plates at a density of 1000 cells per well in triplicates for each treatment group. Next day, cells were treated with single drugs, or combination at the different concentrations. Culture medium was changed with fresh drugs twice a week. Cells were cultured for 3 weeks. Cell colonies were then fixed in 10% formalin and stained with 0.05% crystal violet in 25% methanol. The stained colonies were imaged and total colony area was quantitated using NIH ImageJ v.1.48 software. Effect-based Combination Index (CI) was calculated by inhibition percentage of single drug and combination treatments using Bliss combination model. CI=((EA+EB)−(EA*EB))/EAB, where EA, EB, and EAB are effects of drug A, B and combination AB inhibition percentage. Here the effect is inhibition percentage of colony formation compared to vehicle controls. […]

SLFN11 = assay: Immunoblotting of SLFN11 in breast cancer cell lines; type: cell-based, human; details: BCX-010CL, HCC-1937, HCC-1143, MDA-MB-157; 1 μM for 3 days; FIG. 10A
Experimental: as §1

[4] = test system: DNMT1, DNMT3A, and DNMT3B; assay: Immunoblotting of DNA methyltransferases (DNMTs); type: cell-based, human; details: breast cancer cell lines; 1 μM for 3 days; FIG. 3B
Experimental: as §1

E-cadherin = assay: Immunoblotting of E-cadherin in breast cancer cell lines; type: cell-based, human; details: BCX-010CL cells
Experimental: as §1, §2, §3

TROP2 promoter = assay: Methylation-specific PCR of TROP2 promoter CpG region; details: BCX-010 cells; decitabine 1 μM; FIG. 3A
Experimental: Genomic DNA was extracted from BCX-010CL and BCX-011CL cells treated decitabine at 1 μM for 3 days, or from ZEB1 knockdown cells, and then subjected bisulfite CT conversion, followed by MSP using methylation specific primers specific to a CpG region in the TROP2 promoter. GAPDH was used as a control.
Following treatments, cells were lysed and genomic DNA (gDNA) was extracted using Genomic DNA Purification Kit (ThermoFisher) according to manufacturer's manual. Bisulfite CT conversion of quantitated gDNA was performed using EZ DNA Methylation Kit (Zymo Research) following manufacturer's manual. MSP of TROP2 promoter CpG region was performed using a methylation forward primer, a methylation reverse primer, an un-methylated forward primer, and an un-methylated reverse primer. PCR condition was set up as following: 94° C., 1 minute; [94° C., 30 seconds, 62° C., 30 seconds, 72° C., 45 seconds]×40 cycles; 72° C., 2 minutes, 4° C. About 200 bp PCR product was separated by 2% agarose gel.

BCX-010CL cells = assay: Cell survival assay of SN-38 with or without decitabine; type: cell-based, human; details: decitabine co-treatment, 3 days, FIG. 10B
Experimental: BCX-010CL cells were treated with SN-38 at serial dilutions, with or without decitabine co-treatment for 3 days. IC50s of individual agents and combination index were calculated.
BCX-010CL cells were also treated with SN-38 at serial dilutions, with or without decitabine co-treatment for 3 days. IC50s of individual agents and combination index were calculated.

TROP2 [5] = assay: Immunocytochemistry of TROP2 in SUM159 cells; type: cell-based, human; details: 1 μM for 3 days
Experimental: SUM159 cells were treated with decitabine at 1 μM for 3 days. After cell fixation, cell pellet blocks were processed and probed with anti-TROP2 antibody, followed by hematoxylin staining.
After cell fixation, cell pellet blocks were processed and probed with anti-TROP2 antibody, followed by hematoxylin staining (FIG. 2D).
Formalin-fixed paraffin-embedded (FFPE) cell lines/tissue of 4-micron thickness slides were baked at 60° C. for 1 hour. IHC staining was performed using Leica BondRXm autostainer (Leica Biosystems) for further processing. In brief, after deparaffinized by bond dewax solution, epitope retrieval (HIER) was performed with citrate buffer pH6, followed by washing steps. After peroxidase blocking (3% H2O2) for 20 minutes, slides were incubated in TROP2 rabbit monoclonal [EPR20043], catalog #ab214488 with a 1:2000 dilution for 15 minutes at ambient temperature. After transient washing, post-primary and polymer incubation for 8 min, followed by hematoxylin staining and wash steps. Afterwards, the slides were unloaded from autostainer, air dried and cover slipped with mounting media (Cytoseal XYL mounting media).

BCX-010 cells = assay: Colony formation assay, BCX-010 control and Zeb1 knockdown; type: cell-based, human; details: BCX-010 control and Zeb1 knockdown cells; decitabine 5 nM, sacituzumab govitecan 20 nM, 14 days
Experimental: FIGS. 7A-7B show a colony assay of BCX-010 cells transfected with control shRNA (FIG. 7A) or Zeb1 shRNA (FIG. 7B) after treatment with vehicle, sacituzumab govitecan (20 nM), and/or decitabine (5 nM) for 14 days. After 14 days, cell colonies formed on the plates, were fixed with 10% formalin, and stained with 0.05% crystal violet. […] Annexin V positive apoptotic cells were measured by flow cytometry. Percentage of apoptotic cells over total cell populations was calculated.
In order to determine the effect of decitabine and/or Zeb1 knockdown treatment on sacituzumab govitecan activity, colony formation assays were performed in BCX-010 breast cancer cells. BCX-010 cells (control and Zeb1 knockdown) were seeded into 6-well plates at 1000 cells/well. Cells were treated with decitabine (5 nM) and/or sacituzumab govitecan ([…]) for 14 days. Culture medium with replaced with culture medium containing fresh drugs twice. After 14 days, cell colonies form on the plates were fixed with 10% formalin and stained with 0.05% crystal violet. Total colony area and colony number were quantified using ImageJ software.

TROP2 mRNA = assay: Quantitative RT-PCR of TROP2 mRNA; type: cell-based, human; details: decitabine 1 μM, three days; BCX-010 (control or Zeb1 shRNA) and Sum-159 cells
Experimental: Following treatments, cells were lysed and total RNA was extracted using GeneJet RNA Purification Kit (ThermoFisher) according to manufacturer's manual. cDNA was synthesized from RNA using High-Capacity RNA-to-cDNA Kit (ThermoFisher) following manufacturer's manual. DNA amount in cDNA samples were quantitated using Qubity dsDNA Kit (ThermoFisher). Real time PCR was performed with the same amount DNA from each sample using TaqMan Universal PCR Master Mix Kit (ThermoFisher), under the PCR conditions: 50° C., 2 minutes; 95° C., 10 minutes; [95° C., 15 seconds, 60° C., 1 minutes]×35 cycles. Fold changes of mRNA expression levels were calculated using formula 2^rrCT (rrCT: cycle threshold of treatment group-cycle threshold of control group).
BCX-010 cells (FIG. 2A) and Sum-159 cells (FIG. 2B) were treated decitabine (1 μM), panobinostat (20 nM), or DMSO for three days. Total RNA was extracted from the treated cells using GeneJet RNA kit, followed by reverse transcription using High Capacity RNA-to-cDNA kit. cDNAs were quantitated using Qubit DNA kit. Quantitative real time PCR (qPCR) was performed using Taqman Universal PCR Master Mix kit with a TROP2 probe. Relative TROP2 levels were obtained by normalization with GAPDH. Additionally, BCX-010CL cells were treated with shRNA control or ZEB1 shRNA (FIG. 2C).

Nc1ncn([C@H]2C[C@H](O)[C@@H](CO)O2)c(=O)n1 [decitabine, 5-Aza-2′-deoxycytidine]
sensitization of cells to Sacituzumab govitecan (cell survival) [1]: sensitizes cells to Sacituzumab govitecan in breast cancer cell lines
apoptosis (Annexin V positive cells) [2]: induced cell apoptosis in BCX-010 and Sum-159 cells
TROP2 protein expression (TROP2 [3]; 1 μM for 3 days, BCX-011, BCX-010, Sum-159, BCX-010 control shRNA, BCX-010 Zeb1 shRNA, FIG. 1B): increased TROP2 protein expression in all 5 cell lines
TROP2 expression, panel of epigenetic modulators (immunoblot) (TROP2 [3]; BCX-010CL, BCX-011CL, SUM159 cells, 3 days, FIG. 1D): most effective enhancer of TROP2 expression
colony formation (Sum-159 cells): inhibited cell colony formation in Sum-159 cells
SLFN11 expression (immunoblot) (SLFN11): increases SLFN11 expression
protein levels of DNMT1, DNMT3A, and DNMT3B [4]: decreased protein levels of three DNMT isoforms
E-cadherin expression (E-cadherin): increased E-cadherin expression
TROP2 promoter methylation (MSP) (TROP2 promoter): decreased TROP2 promoter methylation
sensitization of cells to SN-38 (cell survival) (BCX-010CL cells): sensitizes cells to SN-38 in BCX-010CL cells
TROP2 expression (immunocytochemistry) (TROP2 [5]): increases TROP2 expression in SUM159 cells
colony formation (BCX-010 cells): inhibited cell colony formation
TROP2 mRNA expression (qPCR, normalized with GAPDH) (TROP2 mRNA): increased TROP2 mRNA expression in all cell lines
